Test results published in ChEMBL document CHEMBL1156904, “Part II: piperazinyl-glutamate-pyridines as potent orally bioavailable P2Y12 antagonists for inhibition of platelet aggregation” (Bioorg Med Chem Lett, 2010).
Values after ≈ are worked out from the molar mass of the structure shown.

How the values were obtained:
[1] = Clearance in Beagle dog at 0.5 mg/kg, iv and 1 mg/kg, po; type: ADME, organism-based, Canis lupus familiaris; conditions: in vivo
[2] = Effective half life in Beagle dog at 0.5 mg/kg, iv and 1 mg/kg, po; type: ADME, organism-based, Canis lupus familiaris; conditions: in vivo
[3] = Antiplatelet activity in human platelet rich plasma assessed as inhibition of ADP-induced platelet aggregation by chronolog PRP aggregometry assay; type: functional
[4] = Solubility at pH 2.0; type: physicochemical; conditions: buffer
[5] = Protein binding in human plasma assessed as fraction unbound at 10 uM
[6] = Protein binding in human plasma assessed as fraction unbound at 0.2 uM
[7] = Antiplatelet activity in human platelet rich plasma assessed as inhibition of ADP-induced platelet aggregation; type: functional
[8] = Protein binding in human plasma assessed as fraction unbound at 2 uM
P2Y purinoceptor 12 [9] = molecular target: T1, P2Y purinoceptor 12 (Homo sapiens, UniProt Q9H244); test: Inhibition of human P2Y12 receptor expressed in CHO cells in presence of 0.4% human serum albumin
[10] = Volume of distribution at steady state in Beagle dog at 0.5 mg/kg, iv and 1 mg/kg, po; type: ADME, organism-based, Canis lupus familiaris; conditions: in vivo, read-out: Vdss
[11] = Antiplatelet activity in human platelet rich plasma assessed as inhibition of ADP-induced platelet aggregation relative to AZD-6140; type: functional
[12] = molecular target: Voltage-gated inwardly rectifying potassium channel KCNH2 (Homo sapiens, UniProt Q12809); test: Inhibition of human ERG
[13] = Clearance in Sprague-Dawley rat at 2 mg/kg, iv and 5 mg/kg, po; type: ADME, organism-based; conditions: in vivo
P2Y purinoceptor 12 [14] = molecular target: T1, P2Y purinoceptor 12; test: Inhibition of human P2Y12 receptor expressed in CHO cells
[15] = Metabolic stability in rat microsomes; type: ADME, Microsome
Rattus norvegicus [16] = test: Toxicity in rat administered as 7 day repeat dose; type: organism-based; conditions: in vivo, 168 h
[17] = Solubility at pH 9.0; type: physicochemical; conditions: buffer
[18] = Effective half life in Sprague-Dawley rat at 2 mg/kg, iv and 5 mg/kg, po; type: ADME, organism-based; conditions: in vivo, read-out: t1/2eff (converted)
[19] = Metabolic stability in human microsomes; type: ADME, Microsome
[20] = Volume of distribution at steady state in Sprague-Dawley rat at 2 mg/kg, iv and 5 mg/kg, po; type: ADME, organism-based; conditions: in vivo, read-out: Vdss
[21] = Solubility at pH 6.5; type: physicochemical; conditions: buffer
Rattus norvegicus [22] = test: Toxicity in rat administered as single dose; type: organism-based; conditions: in vivo
in vivo = conditions: Sprague-Dawley, rat, po, 5 mg/kg

T1 sequence (Q9H244 whole entry): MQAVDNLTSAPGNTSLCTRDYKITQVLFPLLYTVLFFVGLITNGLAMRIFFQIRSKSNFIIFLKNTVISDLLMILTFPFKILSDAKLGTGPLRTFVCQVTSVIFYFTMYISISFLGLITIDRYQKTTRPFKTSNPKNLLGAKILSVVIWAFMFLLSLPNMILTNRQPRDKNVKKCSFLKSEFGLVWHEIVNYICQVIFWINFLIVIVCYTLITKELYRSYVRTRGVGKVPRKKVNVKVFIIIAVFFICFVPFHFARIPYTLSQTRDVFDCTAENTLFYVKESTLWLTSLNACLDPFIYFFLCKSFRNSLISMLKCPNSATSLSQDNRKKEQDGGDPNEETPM
Sequence of Voltage-gated inwardly rectifying potassium channel KCNH2 (Q12809 whole entry): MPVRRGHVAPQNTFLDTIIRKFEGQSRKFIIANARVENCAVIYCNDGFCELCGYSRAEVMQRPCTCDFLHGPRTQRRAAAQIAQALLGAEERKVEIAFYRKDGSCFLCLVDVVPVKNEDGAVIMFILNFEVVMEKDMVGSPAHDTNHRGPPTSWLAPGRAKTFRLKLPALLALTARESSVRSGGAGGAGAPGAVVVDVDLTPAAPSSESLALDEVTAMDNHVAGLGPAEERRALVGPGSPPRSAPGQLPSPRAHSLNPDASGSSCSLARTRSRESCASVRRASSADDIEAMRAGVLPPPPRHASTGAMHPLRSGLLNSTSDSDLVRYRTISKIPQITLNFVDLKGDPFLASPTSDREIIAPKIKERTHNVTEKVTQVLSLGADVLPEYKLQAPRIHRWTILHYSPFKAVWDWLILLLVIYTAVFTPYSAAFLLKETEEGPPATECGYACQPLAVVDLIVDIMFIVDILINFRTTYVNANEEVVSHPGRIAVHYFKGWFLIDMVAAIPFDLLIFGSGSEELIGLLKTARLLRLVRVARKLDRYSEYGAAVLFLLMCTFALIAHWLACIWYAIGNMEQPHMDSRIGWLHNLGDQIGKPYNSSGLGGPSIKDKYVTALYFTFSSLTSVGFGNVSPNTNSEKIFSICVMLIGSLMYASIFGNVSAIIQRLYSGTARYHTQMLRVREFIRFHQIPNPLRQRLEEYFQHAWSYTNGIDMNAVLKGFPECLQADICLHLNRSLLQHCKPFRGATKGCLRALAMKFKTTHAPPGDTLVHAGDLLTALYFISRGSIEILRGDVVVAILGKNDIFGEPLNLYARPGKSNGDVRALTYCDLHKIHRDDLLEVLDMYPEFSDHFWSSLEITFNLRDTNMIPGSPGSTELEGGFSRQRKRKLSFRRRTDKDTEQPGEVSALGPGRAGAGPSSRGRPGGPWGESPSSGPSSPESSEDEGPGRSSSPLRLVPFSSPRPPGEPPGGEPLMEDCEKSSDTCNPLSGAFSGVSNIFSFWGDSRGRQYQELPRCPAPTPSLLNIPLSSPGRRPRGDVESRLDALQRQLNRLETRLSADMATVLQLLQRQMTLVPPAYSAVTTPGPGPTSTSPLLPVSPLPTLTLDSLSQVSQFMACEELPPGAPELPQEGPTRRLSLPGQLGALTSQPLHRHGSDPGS

| Structure (SMILES) | clearance [1] [mL/min/kg] | half-life [2] [h] | IC50 [3] [nM] | solubility [4] [µM] | fraction unbound at 10 µM [5] | fraction unbound at 0.2 µM [6] | IC50 [7] [nM] | Kb [7] [nM] | fraction unbound at 2 µM [8] | Ki (P2Y purinoceptor 12 [9]) [nM] | Vd [10] [L/kg] | fold change (FC) [11] | IC50 [12] [nM] | clearance [13] [mL/min/kg] | Ki (P2Y purinoceptor 12 [14]) [nM] | Stability [15] | solubility [17] [µM] | half-life [18] [h] | Stability [19] | Vd [20] [L/kg] | also measured |
| --- | --- | --- | --- | --- | --- | --- | --- | --- | --- | --- | --- | --- | --- | --- | --- | --- | --- | --- | --- | --- | --- |
| CCCCCOC(=O)N1CCN(C(=O)[C@H](CCC(=O)O)NC(=O)c2cc(N3CCC(C(=O)N4CCCC4)CC3)cc(-c3ccccc3)n2)CC1 | 2 | 1 | 325 | 299 (≈ 207 µg/mL) | 0.061 | 0.053 | 400 | 68 | 0.057 | 6.7 | 0.18 | 0.65 | > 90000 | 5 | 2.8 | Stable | 1290 (≈ 892 µg/mL) | 1.1 | Stable | 0.5 | Activity (Rattus norvegicus [16]): Non-toxic; solubility [21]: 48 µM (≈ 33.2 µg/mL) |
| CCCCOC(=O)N1CCN(C(=O)[C@H](CCC(=O)O)NC(=O)c2cc(N3CCC(C(=O)N4CCCC4)CC3)cc(-c3ccccc3)n2)CC1 | 3 | 0.8 | 255 | 921 (≈ 623 µg/mL) | 0.033 | 0.034 | 360 | 49 | 0.044 | 6.3 | 0.22 | 0.54 | > 90000 | 5 | 2.1 | Stable | 969 (≈ 656 µg/mL) | 1.5 | Stable | 0.7 | Activity (Rattus norvegicus [22]): Non-toxic; solubility [21]: 195 µM (≈ 132 µg/mL) |
| CCCCCOC(=O)N1CCN(C(=O)[C@H](CCC(=O)O)NC(=O)c2cc(N3CCC(C(N)=O)CC3)cc(-c3ccccc3)n2)CC1 | – | – | – | – | – | – | 2400 | – | – | – | – | 0.9 | – | 44 | 6.5 | Stable | – | 0.6 | Stable | 2.2 | bioavailability (in vivo): 2% |
